# Measured values: patent US20210284668A1, “GOLD (I)-PHOSPHINE 1,2,3-TRIAZOLE DERIVATIVES WITH ANTIBIOTIC PROPERTIES” (Centre National de la Recherche Scientifique, priority 2018, published 2021)
# “And” between values parts separate entries of the source, which are not always exact repeats. Equal entries are not always repeated.
# Experiments:
# S. aureus ST20131365 = test: MIC by microdilution, S. aureus ST20131365; assay type: cell-based, Staphylococcus aureus; settings: S. aureus ST20131365 (MecA positive, glycopeptide resistant), in duplicate
# Experimental: (§1) The antibacterial profile of each derivative was evaluated by the standard microdilution method for susceptibility testing on 16 different strains, following the guidelines of CLSI. The selected panel included: • S. aureus ATCC25923 (MecA negative, wild-type) • S. aureus ATCC29213 (MecA negative, wild-type) • S. aureus ATCC700699 (MecA positive, glycopeptide resistant) • S. aureus ST20131365 (MecA positive, glycopeptide resistant) • S. epidermidis ATCC14990 (MecA negative, wild-type) • S. epidermidis ATCC35984 (MecA positive) • S. epidermidis ST20140436 (MecA positive, glycopeptide resistant) • S. epidermidis ST20150446 (MecA positive, glycopeptide resistant) • E. faecalis JH2-2 (wild-type) • E. faecalis UCN41 (VanA positive, glycopeptide resistant) • E. faecalis V583 (VanB positive, glycopeptide resistant) • E. faecium ATCC19434T (wild-type) • E. faecium BM4147 (VanA positive, glycopeptide resistant) • E. faecium AUS0004 (VanB positive, glycopeptide resistant) • E. coli ATCC25922 (wild-type) • Clostridium difficile ATCC9689 (wild-type)
# (§2) Both series issued from the SAR study were evaluated for their antibacterial activity on a panel of characterized strains obtained from the French National Reference Centers for Staphylococci (Lyon, Pr. Fréderique Laurent) and for Enterococci (Caen, Pr. Vincent Cattoir), respectively. As shown in the following tables, both series contain very active compounds on multi-resistant Gram-positive bacteria (Minimal Inhibitory Concentrations lower than comparator antibiotic ampicillin). Furthermore, a very important antibacterial effect has been shown too on a strain of Clostridium difficile, a Gram-positive, spore-forming, bacillus responsible for post-antibiotic diarrhoae.
# (§3) The antibacterial activity of test compounds was evaluated on a selected panel of Gram-positive (4 Staphylococcus aureus, 4 Staphylococcus epidermidis, 3 Enterococcus faecalis, 3 Enterococcus faecium, 1 Clostridium difficile) and Gram-negative strains (1 Escherichia coli, 1 Klebsiella pneumoniae, 1 Pseudomonas aeruginosa, 1 Acinetacter baumannii) with known features of antibiotic resistance (from wild-type susceptibility to multi-drug resistance). The Minimal Inhibitory Concentration (MIC) of test compounds was determined in duplicate by the microdilution method in 96-well microplates with a final volume of 100 μL per well and Mueller-Hinton broth as the growth medium, as recommended by the CLSI (Clinical and Laboratory Standards Institute, document Mo7-A10, USA).
# E. faecium BM4147 = test: MIC by microdilution, E. faecium BM4147; assay type: cell-based, Enterococcus faecium; design: unit not given here; settings: E. faecium BM4147 (VanA positive, glycopeptide resistant), in duplicate
# Experimental: as §1, §2, §3
# [1] = test system: Clostridium difficile ATCC700057; test: MIC by microdilution, Clostridium difficile; assay type: cell-based; settings: strain ATCC70057 [sic] (Tables 1-2) / ATCC700057 (Tables 3-10), in duplicate
# E. faecalis UCN41 = test: MIC by microdilution, E. faecalis UCN41; assay type: cell-based, Enterococcus faecalis; design: unit not given here; settings: E. faecalis UCN41 (VanA positive, glycopeptide resistant), in duplicate
# Experimental: as §1, §2, §3
# S. epidermidis ATCC35984 = test: MIC by microdilution, S. epidermidis ATCC35984; assay type: cell-based, Staphylococcus epidermidis; settings: S. epidermidis ATCC35984 (MecA positive), in duplicate
# Experimental: as §1, §2, §3
# E. faecium AUS0004 = test: MIC by microdilution, E. faecium AUS0004; assay type: cell-based, Enterococcus faecium; settings: E. faecium AUS0004 (VanB positive, glycopeptide resistant), in duplicate
# Experimental: as §1, §2, §3
# S. aureus ATCC700699 = test: MIC by microdilution, S. aureus ATCC700699; assay type: cell-based, Staphylococcus aureus; design: unit not given here; settings: S. aureus ATCC700699 (MecA positive, glycopeptide resistant), in duplicate
# Experimental: as §1, §2, §3
# E. faecalis V583 = test: MIC by microdilution, E. faecalis V583; assay type: cell-based, Enterococcus faecalis; settings: E. faecalis V583 (VanB positive, glycopeptide resistant), in duplicate
# Experimental: as §1, §2, §3
# [2] = test system: S. epidermidis ST20140436; test: MIC by microdilution, S. epidermidis ST20140436; assay type: cell-based, Staphylococcus epidermidis; settings: S. epidermidis ST20140436 (MecA positive, glycopeptide resistant), in duplicate
# Experimental: as §1, §2, §3
# S. aureus ATCC29213 = test: MIC by microdilution, S. aureus ATCC29213; assay type: cell-based, Staphylococcus aureus; settings: S. aureus ATCC29213 (MecA negative, wild-type), Mueller-Hinton broth, in duplicate
# Experimental: as §1, §2, §3
# [3] = test system: panel of Gram-positive and Gram-negative strains; test: Antibacterial profile on the selected panel of strains; assay type: cell-based; settings: summary of Tables 1-12
# Experimental: as §1, §2, §3
# E. faecium ATCC19434T = test: MIC by microdilution, E. faecium ATCC19434T; assay type: cell-based, Enterococcus faecium; design: unit not given here; settings: E. faecium ATCC19434T (wild-type), in duplicate
# Experimental: as §1, §2, §3
# [4] = test system: S. epidermidis ST20150446; test: MIC by microdilution, S. epidermidis ST20150446; assay type: cell-based, Staphylococcus epidermidis; settings: S. epidermidis ST20150446 (MecA positive, glycopeptide resistant), in duplicate
# Experimental: as §1, §2, §3
# S. epidermidis ATCC14990 = test: MIC by microdilution, S. epidermidis ATCC14990; assay type: cell-based, Staphylococcus epidermidis; settings: S. epidermidis ATCC14990 (MecA negative, wild-type), in duplicate
# Experimental: as §1, §2, §3
# E. faecalis JH2-2 = test: MIC by microdilution, E. faecalis JH2-2; assay type: cell-based, Enterococcus faecalis; design: unit not given here; settings: E. faecalis JH2-2 (wild-type), in duplicate
# Experimental: as §1, §2, §3
# S. aureus ATCC25923 = test: MIC by microdilution, S. aureus ATCC25923; assay type: cell-based, Staphylococcus aureus; settings: S. aureus ATCC25923 (MecA negative, wild-type), Mueller-Hinton broth, in duplicate
# Experimental: as §1, §2, §3
# E. coli ATCC25922 = test: MIC by microdilution, E. coli ATCC25922; assay type: cell-based, Escherichia coli; settings: E. coli ATCC25922 (wild-type), in duplicate
# Experimental: as §1, §2, §3
Structure (SMILES),Minimal Inhibitory Concentration (MIC) (S. aureus ST20131365),Minimal Inhibitory Concentration (MIC) (E. faecium BM4147),Minimal Inhibitory Concentration (MIC) [1],Minimal Inhibitory Concentration (MIC) (E. faecalis UCN41),Minimal Inhibitory Concentration (MIC) (S. epidermidis ATCC35984),Minimal Inhibitory Concentration (MIC) (E. faecium AUS0004),Minimal Inhibitory Concentration (MIC) (S. aureus ATCC700699),Minimal Inhibitory Concentration (MIC) (E. faecalis V583),Minimal Inhibitory Concentration (MIC) [2],Minimal Inhibitory Concentration (MIC) (S. aureus ATCC29213),antimicrobial / antibacterial activity (in words) [3],Minimal Inhibitory Concentration (MIC) (E. faecium ATCC19434T),Minimal Inhibitory Concentration (MIC) [4],Minimal Inhibitory Concentration (MIC) (S. epidermidis ATCC14990),Minimal Inhibitory Concentration (MIC) (E. faecalis JH2-2),Minimal Inhibitory Concentration (MIC) (S. aureus ATCC25923),Minimal Inhibitory Concentration (MIC) (E. coli ATCC25922)
CC[P+](CC)(CC)[Au-][c]1nn[nH]c1CNC(=O)CCCC[C@@H]1SC[C@@H]2NC(=O)N[C@@H]21 [TMB42],0.25,0.5,0.25,1,≤0.06,0.5,0.25,1,≤0.06,0.25,have antimicrobial activity,0.25,≤0.06,≤0.06,0.25,0.125,–
CC[P+](CC)(CC)[Au-][c]1nn[nH]c1-c1cccc(C(=O)NC(C(=O)O)c2ccccc2)c1 (stereo not shown) [TMB20],0.125,0.25 and 0.5,≤0.06,0.25,≤0.06,0.25,0.125,0.25 and 0.5,≤0.06,–,have antimicrobial activity,0.25,–,≤0.06,0.25,0.125,>8
CC[P+](CC)(CC)[Au-][c]1nn[nH]c1COC(=O)NC(C(=O)O)c1ccccc1 (stereo not shown) [TMB45],0.25,0.25,0.125,0.25,≤0.06,0.5,0.25,0.5,≤0.06,0.25,have antimicrobial activity,0.25,≤0.06,≤0.06,0.5,0.125,–
O=C(CCc1cnn[nH]1)N[C@@H](C(=O)O)c1ccccc1 [TMB46],>8,>8,>8,>8,>8,>8,>8,>8,>8,>8,do not show an antibacterial activity,>8,>8,>8,>8,>8,–
CC[P+](CC)(CC)[Au-][c]1nn[nH]c1CCC(=O)NC(C(=O)O)c1ccccc1 (stereo not shown) [TMB21],0.125,0.25 and 0.5,≤0.06,0.25,≤0.06,0.25,0.125,0.25 and 0.5,≤0.06,–,have antimicrobial activity,0.25,≤0.06,≤0.06,0.25,–,>8
CC[P+](CC)(CC)[Au-][c]1nn[nH]c1-c1cccc(C(=O)NC(C(=O)NC2C(=O)N3C2SC(C)(C)C3C(=O)O)c2ccccc2)c1 (stereo not shown) [TMB12],0.5,1,≤0.06,0.5 and 1,≤0.06,0.5,0.125 and 0.25,1,≤0.06,–,have antimicrobial activity,0.5,≤0.06,≤0.06,0.5,–,>8
CC[P+](CC)(CC)[Au-][c]1nn[nH]c1CCS(N)(=O)=O [TMB36],–,0.5,≤0.06,0.25,≤0.06,0.25,0.125,0.5,≤0.06,–,have antimicrobial activity,0.25,≤0.06,≤0.06,0.25,≤0.06,>8
CC[P+](CC)(CC)[Au-][c]1nn[nH]c1-c1ccc(C(=O)O)cn1 [TMB39],≤0.06,0.125,0.25 and 0.5,0.25,≤0.06,0.5,≤0.06,0.25,≤0.06,≤0.06,have antimicrobial activity,0.125,≤0.06,≤0.06,0.25,≤0.06,–
